Activity calls are given as the source filed them.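 How the source made its calls: active means mean half-maximal activating concentration from the dose-response fit at or below a set limit; inactive means the rest.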
Target: CHO-XBP1 luciferase reporter, IRE1-XBP1 UPR activation
Assay: activators of IRE1-XBP1 UPR arm, dose response, counter-screen for apoptotic UPR arm activators, CHO-XBP1 cells, luminescence (AID 489040);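 further: reporter read after six hours of compound exposure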

Row | Structure (SMILES) | EC50
1 | COCc1cc(C)nc(OCC(=O)N/N=C/c2ccc(-c3cc([N+](=O)[O-])ccc3Cl)o2)c1C#N | 13.2 µM
2 | CCOc1ccc2c(c1)C(=NNC(=O)c1ccncc1)c1cc(OCC)ccc1-2 | > 80 µM (inactive)
3 | COc1ccc(CCn2c(C)cc(C(=O)CCl)c2C)cc1OC | > 80 µM (inactive)
4 | CCOC(=O)c1ccc(-c2ccc(/C=N/NC(=O)CN(c3cccc(C)c3)S(C)(=O)=O)o2)cc1 | inactive
5 | N#CC12COC3(CCCCC3C1(C#N)C#N)OC2=N (stereo unspecified) | > 80 µM (inactive)
6 | COc1ccccc1N=c1oc2c(OC)cccc2cc1C(=O)NCc1ccco1 | inactive
7 | S=C(Nc1ccccc1)c1ccccn1 | > 80 µM (inactive)
8 | Cn1c(SCC(=O)NCC2CCCO2)ncc(C(=O)Nc2ccc(Cl)cc2)c1=O (stereo unspecified) | > 80 µM (inactive)
9 | CC1CCC/C=C/C(=O)c2c(O)cc(O)cc2CC(=O)O1 (stereo unspecified) | > 80 µM (inactive)
10 | O=C(CCl)Nc1cc(S(=O)(=O)N2CCCCCC2)ccc1Cl | > 80 µM (inactive)
11 | O=C1/C(=C/c2ccccc2[N+](=O)[O-])COc2ccccc21 | > 80 µM (inactive)
12 | Cc1[nH]c2ccccc2c1CN1CCC(Cc2ccccc2)CC1 | > 80 µM (inactive)
13 | O=C(/C=C/Sc1ccccc1)c1ccccc1 | > 80 µM (inactive)
14 | O=c1c2ccccc2nc(/C=C/c2ccc([N+](=O)[O-])o2)n1-c1ccc(O)cc1 | > 80 µM (inactive)
15 | COc1cc(C(=O)Sc2ccc(Cl)cc2)cc(OC)c1OC | > 80 µM (inactive)
16 | Cc1ccc(S(=O)(=O)Nc2cccc3cccnc23)cc1 | > 80 µM (inactive)
17 | O=C(/C(=C/c1cccc(Cl)c1)c1nc2ccccc2[nH]1)c1ccccc1 | > 80 µM (inactive)
18 | O=C(CCl)Nc1cccc(S(=O)(=O)NC2=NCCCCC2)c1 | > 80 µM (inactive)
19 | O=C(/C(=C/c1ccc(Cl)cc1)c1nc2ccccc2[nH]1)c1cccs1 | > 80 µM (inactive)
20 | O=C1C(CSCc2ccccc2)NC(=S)N1c1ccccc1 (stereo unspecified) | > 80 µM (inactive)
21 | Cc1ccc(Sc2nc(-c3ccccc3)nnc2C(F)(F)F)cc1 | > 80 µM (inactive)
22 | CN1CCN(Cc2cc(COCc3ccccc3)c3cccnc3c2O)CC1 | inactive
23 | COC(=O)C(=Cc1ccc(OCc2ccc([N+](=O)[O-])cc2)c(OC)c1)C(=O)OC | > 80 µM (inactive)
24 | CCCN1C/C(=C/c2ccc3c(c2)OCO3)C(=O)/C(=C/c2ccc3c(c2)OCO3)C1 | > 80 µM (inactive)

Row | Structure (SMILES) | EC50
25 | Cc1cc(C)c(C(CC(=O)c2cccs2)C(C#N)C#N)c(C)c1 (stereo unspecified) | > 80 µM (inactive)
26 | COc1ccc(N2C(=O)/C(=C/c3cccs3)C(=O)NC2=S)cc1 | > 80 µM (inactive)
27 | O=S(=O)(Nc1cccc2cccnc12)c1ccccc1 | > 80 µM (inactive)
28 | Oc1ccc(/C=N/Nc2ccc(C(F)(F)F)cn2)cc1O | > 80 µM (inactive)
29 | O=S1(=O)Nc2c(ccc3cccnc23)-c2ccccc21 | > 80 µM (inactive)
30 | O=C(Nc1ccc(C(F)(F)F)cc1)c1cc(-c2cccnc2)nc2ccc(Br)cc12 | 6.29 µM
31 | O=C(N/N=C/c1ccccn1)c1cc([N+](=O)[O-])cc([N+](=O)[O-])c1 | > 80 µM (inactive)
32 | O=[N+]([O-])c1ccc(N/N=C/c2cccc(O)c2O)c(S(=O)(=O)N2CCOCC2)c1 | inactive
33 | Cc1c(C(=O)c2cccc3ccccc23)c2cccc3c2n1[C@H](CN1CCOCC1)CO3 | > 80 µM (inactive)
34 | Oc1c(CN2CCCCC2)cc(Br)c2cccnc12 | > 80 µM (inactive)
35 | N#C/C(=C\c1ccc(OCc2ccccc2)cc1)C(=O)Nc1nc2c(s1)CCN(Cc1ccccc1)C2 | > 80 µM (inactive)
36 | CC(C)c1ccc(N2C(=O)CC(Sc3nc4ccccc4o3)C2=O)cc1 (stereo unspecified) | > 80 µM (inactive)
37 | CSC(=S)N/N=C(\C)c1ccccc1 | > 80 µM (inactive)
38 | C=CCN=c1scc(-c2ccco2)n1/N=C/c1ccc(O)c(O)c1O | > 80 µM (inactive)
39 | O=C(COC(=O)c1ccccc1C(=O)c1ccc(Cl)c([N+](=O)[O-])c1)NC1CCCCCC1 | > 80 µM (inactive)
40 | O=C(Nc1ccc(N2CCOCC2)cc1)c1ccc([N+](=O)[O-])o1 | > 80 µM (inactive)
41 | CCOC(=O)N1CCN(Cc2cc(Cl)c3cccnc3c2O)CC1 | > 80 µM (inactive)
42 | CCOc1cc(/C=N/NC(N)=S)cc(Br)c1OCc1ccccc1C | > 80 µM (inactive)
43 | COc1ccc(N2C(=O)/C(=C/C=C/c3ccccc3[N+](=O)[O-])C(=O)NC2=S)cc1 | > 80 µM (inactive)
44 | CC1(C)CC(=O)C(=Cc2cn(-c3ccccc3)nc2-c2ccccc2)C(=O)C1 | > 80 µM (inactive)
45 | Cc1ccc(F)cc1N=Cc1c(O)c2ccccc2oc1=O | > 80 µM (inactive)
46 | Nc1nc(CC(=O)CSc2ccc(Cl)cc2)nc(Nc2ccc(F)cc2)n1 | > 80 µM (inactive)
47 | CCOC(=O)c1sc(NC(=S)NC(=O)c2ccccc2)c(C(=O)OCC)c1C | > 80 µM (inactive)
48 | N#Cc1cc([N+](=O)[O-])c(-n2nnc3ccccc32)c([N+](=O)[O-])c1 | inactive

Row | Structure (SMILES) | EC50
49 | CS(=O)(=O)c1nc(-c2ccccc2)cc(-c2ccccc2)c1C#N | > 80 µM (inactive)
50 | Oc1c(Cl)cc(CN2CCCCC2)c2cccnc12 | > 80 µM (inactive)
51 | CC1=C(/C=C/C(C)=C/C=C/C(C)=C/C(=O)Nc2ccc(O)cc2)C(C)(C)CCC1 | > 80 µM (inactive)
52 | O=C(N/N=C/c1ccccn1)c1cc(-c2ccccc2)nc2ccccc12 | > 80 µM (inactive)
53 | Cc1noc2ncnc(Sc3ccc(Br)cc3)c12 | > 80 µM (inactive)
54 | CCCCCC(=O)Nc1ccc(C(=O)N/N=C/c2ccc([N+](=O)[O-])cc2)cc1 | > 80 µM (inactive)
55 | COc1ccc(-c2oc(NC(=O)CCl)c(C#N)c2-c2ccc(OC)cc2)cc1 | > 80 µM (inactive)
56 | CCCCNC1C(CC)C(CCC)C(C#N)(C#N)C1(C#N)C#N (stereo unspecified) | > 80 µM (inactive)
57 | COC(=O)c1c(NC(=O)c2ccc([N+](=O)[O-])o2)sc2c1CCN(C(C)C)C2 | > 80 µM (inactive)
58 | Clc1ccc(-n2nnnc2Sc2ncnc3sccc23)cc1 | > 80 µM (inactive)
59 | NC(N)=N/N=C/c1ccc(N(c2ccccc2)c2ccccc2)cc1 | > 80 µM (inactive)
60 | O=C(Nc1nccs1)c1cccc(N2C(=O)c3cccc4c([N+](=O)[O-])ccc(c34)C2=O)c1 | > 80 µM (inactive)
61 | CCOC(=O)c1ccc(N=C2C(=S)N(c3ccc(C(=O)OCC)cc3)C(=N)N2/N=C/c2ccccc2)cc1 | > 80 µM (inactive)
62 | CCOc1cc(NC(=O)CCl)c(OCC)cc1NC(=O)CCl | > 80 µM (inactive)
63 | O=C(N/N=C/c1cccc([N+](=O)[O-])c1)c1cc2c(ccc3ccccc32)o1 | > 80 µM (inactive)
64 | O=C(N/N=C/c1cccc2cccnc12)c1ccccc1O | > 80 µM (inactive)
65 | CCOC(=O)C(CC)(CC)C(=O)/C=C/c1cccc(Br)c1 | > 80 µM (inactive)
66 | O=C(Nc1ccc(-c2nc3ncccc3o2)cc1)c1ccc([N+](=O)[O-])o1 | > 80 µM (inactive)
67 | Cn1nc(C(F)(F)F)c(/C=N/OC(=O)c2ccccc2)c1SCc1ccccc1Cl | 6.11 µM
68 | CC1=CC(C)(C)Nc2ccc(OC(=O)CN3C(=O)C4CCCCC4C3=O)cc21 (stereo unspecified) | > 80 µM (inactive)
69 | Cc1ccc(-c2nc(NC(=O)c3nn(C)cc3[N+](=O)[O-])sc2C)cc1C | > 80 µM (inactive)
70 | O=C(/C(=C/c1ccc(Cl)cc1)c1nc2ccccc2[nH]1)c1ccccc1 | > 80 µM (inactive)
71 | Cc1ccc2nc(-c3ccc(NC(=S)NC4CC(C)(C)NC(C)(C)C4)cc3)sc2c1 | > 80 µM (inactive)
72 | O=c1cc(C(Cl)(Cl)Cl)oc2c1ccc1ccccc12 | inactive

Row | Structure (SMILES) | EC50
73 | CN1C(=O)/C(=C/c2cccn2-c2ccc3ccccc3c2)C(=O)NC1=S | 7.87 µM
74 | CCc1cc(C(=O)c2ccc(C)cc2)c(NC(=O)CCl)s1 | > 80 µM (inactive)
75 | O=C(NCc1cccnc1)/C(=C/c1ccc(-c2cccc(Cl)c2)o1)S(=O)(=O)c1ccccc1 | > 80 µM (inactive)
76 | CCOC(=O)C(=Cc1ccc(F)cc1)C(=O)OCC | > 80 µM (inactive)
77 | COc1cc(/C=C2\CC(C(C)(C)C)C/C(=C\c3cc(OC)c(OC)c(OC)c3)C2=O)cc(OC)c1OC (stereo unspecified) | > 80 µM (inactive)
78 | Cc1ccc(Sc2c([N+](=O)[O-])c(=O)n(C)c3ccccc23)cc1 | > 80 µM (inactive)
79 | COc1ccc(C(=O)/C=C2/C(=O)Nc3ccccc32)c(OC)c1 | > 80 µM (inactive)
80 | Cc1cc(C)cc(N2C(=O)NC(=O)/C(=C\c3cccn3-c3ccccc3)C2=O)c1 | > 80 µM (inactive)
81 | S=C(Nc1ccccn1)c1ccccn1 | > 80 µM (inactive)
82 | COc1ccc(C(=O)N/N=C(\C)c2ccccn2)cc1OC | > 80 µM (inactive)
83 | CCCC[C@@H](C)C[C@@H](C)C(=O)N(C)[C@@H](CC(C)C)C(=O)N[C@H](C(=O)N(C)[C@H](C(=O)N1C[C@@H](O)C[C@H]1C(=O)N1C(=O)C=C[C@@H]1C)C(C)C)C(C)OC(C)=O (stereo partly specified) | 15.6 µM
84 | CSc1nnc(NC(=O)c2nc(S(=O)(=O)Cc3ccccc3F)ncc2Cl)s1 | > 80 µM (inactive)
85 | Cc1ccc(-c2nn(-c3ccccc3)cc2C=C2C(=O)CC(C)(C)CC2=O)cc1 | > 80 µM (inactive)
86 | C=C(C(=O)c1ccccc1)C(C(=C)C(=O)c1ccccc1)c1ccc(OC)cc1 | > 80 µM (inactive)
87 | Cc1ccc(Cc2cnc(NC(=O)/C(C#N)=C/c3ccc(-c4cccc([N+](=O)[O-])c4)o3)s2)cc1 | 9.32 µM
88 | CCOc1ccc(-n2c(C)cc(C(=O)CCl)c2C)cc1 | 5.83 µM
89 | Cc1ccc(-c2cc(NC(=O)CCl)n(-c3ccccc3)n2)cc1 | > 80 µM (inactive)
90 | CC(=O)c1ccc(NC(=O)COC(=O)c2ccccc2N=Nc2ccc(N(C)C)cc2)cc1 | 4.12 µM
91 | COc1ccc2cc1Oc1ccc(cc1)CC1c3c(cc(OC)c4c3Oc3cc5c(cc3O4)CCNC5C2)CCN1C (stereo unspecified) | > 80 µM (inactive)
92 | Cc1ccc(C)c(NC(=S)c2ccccn2)c1 | > 80 µM (inactive)
93 | CCOC(=O)N1CCN(Cc2ccc(O)c3ncccc23)CC1 | > 80 µM (inactive)
94 | CCOc1cc(/C=N/Nc2cc(C)nc(-n3nc(C)cc3C)n2)ccc1O | > 80 µM (inactive)
95 | O=S(=O)(c1ccc(Cl)cc1)c1snnc1-c1ccccc1 | > 80 µM (inactive)
96 | C/C(=N\NC(=O)c1ccc(Cl)c(Cl)c1)c1ccccn1 | > 80 µM (inactive)
